# Measured values reported in PubChem BioAssay (NCI).
#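 Abbreviation: GI50, concentration required for 50% inhibition of growth. TGI is the concentration that stops growth completely.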
# What was measured:
# Assay in all cases: DTP human tumour cell line panel, 384-well format
# 786-0 renal = tested on: 786-0 renal
# A498 renal = tested on: A498 renal
# A549 NSCLC = tested on: A549 NSCLC
# ACHN renal = tested on: ACHN renal
# BT-549 breast = tested on: BT-549 breast
# CAKI-1 renal = tested on: CAKI-1 renal
# CCRF-CEM leukemia = tested on: CCRF-CEM leukemia
# COLO 205 colon = tested on: COLO 205 colon
# DU-145 prostate = tested on: DU-145 prostate
# EKVX NSCLC = tested on: EKVX NSCLC
# HCC-2998 colon = tested on: HCC-2998 colon
# HCT-15 colon = tested on: HCT-15 colon
# HL-60(TB) leukemia = tested on: HL-60(TB) leukemia
# HOP-62 NSCLC = tested on: HOP-62 NSCLC
# HOP-92 NSCLC = tested on: HOP-92 NSCLC
# HS 578T breast = tested on: HS 578T breast
# HT29 colon = tested on: HT29 colon
# IGROV1 ovarian = tested on: IGROV1 ovarian
# KM12 colon = tested on: KM12 colon
# M14 melanoma = tested on: M14 melanoma
# MALME-3M melanoma = tested on: MALME-3M melanoma
# MCF7 breast = tested on: MCF7 breast
# MDA-MB-231 breast = tested on: MDA-MB-231 breast
# MDA-MB-435 melanoma = tested on: MDA-MB-435 melanoma
# MDA-MB-468 breast = tested on: MDA-MB-468 breast
# MOLT-4 leukemia = tested on: MOLT-4 leukemia
# NCI-H226 lung = tested on: NCI-H226 lung
# NCI-H23 lung = tested on: NCI-H23 lung
# NCI-H322M lung = tested on: NCI-H322M lung
# NCI-H460 NSCLC = tested on: NCI-H460 NSCLC
# NCI-H522 lung = tested on: NCI-H522 lung
# NCI/ADR-RES ovarian = tested on: NCI/ADR-RES ovarian
# OVCAR-3 ovarian = tested on: OVCAR-3 ovarian
# OVCAR-4 ovarian = tested on: OVCAR-4 ovarian
# OVCAR-5 ovarian = tested on: OVCAR-5 ovarian
# OVCAR-8 ovarian = tested on: OVCAR-8 ovarian
# PC-3 prostate = tested on: PC-3 prostate
# RPMI-8226 leukemia = tested on: RPMI-8226 leukemia
# RXF 393 renal = tested on: RXF 393 renal
# SF-268 CNS = tested on: SF-268 CNS
# SF-295 CNS = tested on: SF-295 CNS
# SF-539 CNS = tested on: SF-539 CNS
# SK-MEL-2 melanoma = tested on: SK-MEL-2 melanoma
# SK-MEL-28 melanoma = tested on: SK-MEL-28 melanoma
# SK-MEL-5 melanoma = tested on: SK-MEL-5 melanoma
# SK-OV-3 ovarian = tested on: SK-OV-3 ovarian
# SN12C renal = tested on: SN12C renal
# SNB-19 CNS = tested on: SNB-19 CNS
# SNB-75 CNS = tested on: SNB-75 CNS
# SR leukemia = tested on: SR leukemia
# SW-620 colon = tested on: SW-620 colon
# T-47D breast = tested on: T-47D breast
# TK-10 renal = tested on: TK-10 renal
# U251 glioblastoma = tested on: U251 glioblastoma
# UACC-257 melanoma = tested on: UACC-257 melanoma
# UACC-62 melanoma = tested on: UACC-62 melanoma
structure (smiles),measurement,setting,value
CN1CCc2cc3c(cc2C1O)OCO3 (configuration not stated),GI50,786-0 renal,> 100 µM
same,TGI,786-0 renal,> 100 µM
same,GI50,A498 renal,> 100 µM
same,TGI,A498 renal,> 100 µM
same,GI50,A549 NSCLC,> 100 µM
same,TGI,A549 NSCLC,> 100 µM
same,GI50,ACHN renal,> 100 µM
same,TGI,ACHN renal,> 100 µM
same,GI50,BT-549 breast,> 100 µM
same,TGI,BT-549 breast,> 100 µM
same,GI50,CAKI-1 renal,> 100 µM
same,TGI,CAKI-1 renal,> 100 µM
same,GI50,CCRF-CEM leukemia,> 100 µM
same,TGI,CCRF-CEM leukemia,> 100 µM
same,GI50,COLO 205 colon,> 100 µM
same,TGI,COLO 205 colon,> 100 µM
same,GI50,DU-145 prostate,> 100 µM
same,TGI,DU-145 prostate,> 100 µM
same,GI50,EKVX NSCLC,> 100 µM
same,TGI,EKVX NSCLC,> 100 µM
same,GI50,HCC-2998 colon,> 100 µM
same,TGI,HCC-2998 colon,> 100 µM
same,GI50,HCT-15 colon,> 100 µM
same,TGI,HCT-15 colon,> 100 µM
same,GI50,HL-60(TB) leukemia,> 100 µM
same,TGI,HL-60(TB) leukemia,> 100 µM
same,GI50,HOP-62 NSCLC,> 100 µM
same,TGI,HOP-62 NSCLC,> 100 µM
same,GI50,HOP-92 NSCLC,> 100 µM
same,TGI,HOP-92 NSCLC,> 100 µM
same,GI50,HS 578T breast,> 100 µM
same,TGI,HS 578T breast,> 100 µM
same,GI50,HT29 colon,> 100 µM
same,TGI,HT29 colon,> 100 µM
same,GI50,IGROV1 ovarian,> 100 µM
same,TGI,IGROV1 ovarian,> 100 µM
same,GI50,KM12 colon,> 100 µM
same,TGI,KM12 colon,> 100 µM
same,GI50,M14 melanoma,> 100 µM
same,TGI,M14 melanoma,> 100 µM
same,GI50,MALME-3M melanoma,> 100 µM
same,TGI,MALME-3M melanoma,> 100 µM
same,GI50,MCF7 breast,> 100 µM
same,TGI,MCF7 breast,> 100 µM
same,GI50,MDA-MB-231 breast,> 100 µM
same,TGI,MDA-MB-231 breast,> 100 µM
same,GI50,MDA-MB-435 melanoma,> 100 µM
same,TGI,MDA-MB-435 melanoma,> 100 µM
same,GI50,MDA-MB-468 breast,> 100 µM
same,TGI,MDA-MB-468 breast,> 100 µM
same,GI50,MOLT-4 leukemia,> 100 µM
same,TGI,MOLT-4 leukemia,> 100 µM
same,GI50,NCI-H226 lung,> 100 µM
same,TGI,NCI-H226 lung,> 100 µM
same,GI50,NCI-H23 lung,> 100 µM
same,TGI,NCI-H23 lung,> 100 µM
same,GI50,NCI-H322M lung,> 100 µM
same,TGI,NCI-H322M lung,> 100 µM
same,GI50,NCI-H460 NSCLC,> 100 µM
same,TGI,NCI-H460 NSCLC,> 100 µM
same,GI50,NCI-H522 lung,> 100 µM
same,TGI,NCI-H522 lung,> 100 µM
same,GI50,NCI/ADR-RES ovarian,> 100 µM
same,TGI,NCI/ADR-RES ovarian,> 100 µM
same,GI50,OVCAR-3 ovarian,> 100 µM
same,TGI,OVCAR-3 ovarian,> 100 µM
same,GI50,OVCAR-4 ovarian,> 100 µM
same,TGI,OVCAR-4 ovarian,> 100 µM
same,GI50,OVCAR-5 ovarian,> 100 µM
same,TGI,OVCAR-5 ovarian,> 100 µM
same,GI50,OVCAR-8 ovarian,> 100 µM
same,TGI,OVCAR-8 ovarian,> 100 µM
same,GI50,PC-3 prostate,> 100 µM
same,TGI,PC-3 prostate,> 100 µM
same,GI50,RPMI-8226 leukemia,> 100 µM
same,TGI,RPMI-8226 leukemia,> 100 µM
same,GI50,RXF 393 renal,> 100 µM
same,TGI,RXF 393 renal,> 100 µM
same,GI50,SF-268 CNS,> 100 µM
same,TGI,SF-268 CNS,> 100 µM
same,GI50,SF-295 CNS,> 100 µM
same,TGI,SF-295 CNS,> 100 µM
same,GI50,SF-539 CNS,> 100 µM
same,TGI,SF-539 CNS,> 100 µM
same,GI50,SK-MEL-2 melanoma,> 100 µM
same,TGI,SK-MEL-2 melanoma,> 100 µM
same,GI50,SK-MEL-28 melanoma,> 100 µM
same,TGI,SK-MEL-28 melanoma,> 100 µM
same,GI50,SK-MEL-5 melanoma,> 100 µM
same,TGI,SK-MEL-5 melanoma,> 100 µM
same,GI50,SK-OV-3 ovarian,> 100 µM
same,TGI,SK-OV-3 ovarian,> 100 µM
same,GI50,SN12C renal,> 100 µM
same,TGI,SN12C renal,> 100 µM
same,GI50,SNB-19 CNS,> 100 µM
same,TGI,SNB-19 CNS,> 100 µM
same,GI50,SNB-75 CNS,> 100 µM
same,TGI,SNB-75 CNS,> 100 µM
same,GI50,SR leukemia,> 100 µM
same,TGI,SR leukemia,> 100 µM
same,GI50,SW-620 colon,> 100 µM
same,TGI,SW-620 colon,> 100 µM
same,GI50,T-47D breast,> 100 µM
same,TGI,T-47D breast,> 100 µM
same,GI50,TK-10 renal,> 100 µM
same,TGI,TK-10 renal,> 100 µM
same,GI50,U251 glioblastoma,> 100 µM
same,TGI,U251 glioblastoma,> 100 µM
same,GI50,UACC-257 melanoma,> 100 µM
same,TGI,UACC-257 melanoma,> 100 µM
same,GI50,UACC-62 melanoma,> 100 µM
same,TGI,UACC-62 melanoma,> 100 µM
